Laboratory results: the NIST ThermoML archive (doi:10.1016/j.jct.2006.03.018)

Tests used:
[1] = xn = mol fraction of the nth substance listed; conditions: 101 kPa, Liquid
[2] = refractive index (Na D-line) (dimensionless); xn = mol fraction of the nth substance listed; conditions: 101 kPa, Liquid

COc1ccccc1 [anisole] + CCCCO
Conditions | mass density, 298.15 K [kg/m3] | mass density, 303.15 K [kg/m3] | mass density, 308.15 K [kg/m3] | refractive index, 298.15 K | refractive index, 303.15 K | refractive index, 308.15 K | speed of sound, 298.15 K [m/s] | viscosity, 298.15 K [mPa·s] | viscosity, 303.15 K [mPa·s] | viscosity, 308.15 K [mPa·s]
[1], x1 = 0.1064 | 824.95 | 820.92 | 816.89 | – | – | – | 1258 | 2.015 | 1.778 | 1.576
[1], x1 = 0.1923 | 841.43 | 837.28 | 833.12 | – | – | – | 1276 | 1.702 | 1.511 | 1.352
[1], x1 = 0.2988 | 861.78 | 857.49 | 853.21 | – | – | – | 1298 | 1.409 | 1.261 | 1.136
[1], x1 = 0.3972 | 880.06 | 875.69 | 871.31 | – | – | – | 1314 | 1.285 | 1.145 | 1.051
[1], x1 = 0.493 | 897.25 | 892.77 | 888.3 | – | – | – | 1334 | 1.129 | 1.041 | 0.939
[1], x1 = 0.5968 | 922.83 | 918.26 | 913.66 | – | – | – | 1347 | 1.063 | 0.968 | 0.886
[1], x1 = 0.7834 | 930.28 | 925.7 | 921.11 | – | – | – | 1364 | 0.985 | 0.907 | 0.844
[1], x1 = 0.8332 | 957.86 | 953.17 | 948.47 | – | – | – | 1376 | 0.968 | 0.893 | 0.824
[1], x1 = 0.892 | 969.05 | 964.35 | 959.64 | – | – | – | 1390 | 0.962 | 0.884 | 0.822
[1], x1 = 1 | 989.15 | 984.45 | 979.73 | – | – | – | 1412 | 0.988 | 0.913 | 0.854
[2], x1 = 0.1064 | – | – | – | 1.4108 | 1.4069 | 1.4031 | – | – | – | –
[2], x1 = 0.1923 | – | – | – | 1.4221 | 1.4197 | 1.4173 | – | – | – | –
[2], x1 = 0.2988 | – | – | – | 1.4354 | 1.4332 | 1.4307 | – | – | – | –
[2], x1 = 0.3972 | – | – | – | 1.4473 | 1.4449 | 1.4421 | – | – | – | –
[2], x1 = 0.493 | – | – | – | 1.4586 | 1.4563 | 1.4535 | – | – | – | –
[2], x1 = 0.5968 | – | – | – | 1.4719 | 1.4679 | 1.4651 | – | – | – | –
[2], x1 = 0.7834 | – | – | – | 1.4848 | 1.4822 | 1.4795 | – | – | – | –
[2], x1 = 0.8332 | – | – | – | 1.4911 | 1.4888 | 1.4858 | – | – | – | –
[2], x1 = 0.892 | – | – | – | 1.5027 | 1.5005 | 1.4966 | – | – | – | –
[2], x1 = 1 | – | – | – | 1.5137 | 1.5113 | 1.5088 | – | – | – | –
